# Patent publication US20150246067A1, “ANTIVIRAL TREATMENT OF LYMPHOMA AND CANCER” (THE REGENTS OF THE UNIVERSITY OF MICHIGAN, priority 2009, published 2015)
# Test system: HERV K (HML2)
# Test: Reverse transcriptase activity in supernatants of drug-treated NCCIT cells (Reverse Transcription Assay Kit)
# Type: cell-based, human
# Conditions: 7 days, increasing doses of drug, supernatant, FIGS. 4A-I
# Description: HIV antivirals were assayed to determine which antiviral agents have an antiviral effect against HERV K (HML2). The NCCIT cell line derived from a teratocarcinoma produces many HERV K (HML2) viral particles. NCCIT cells were maintained at 40% confluence in 6-well plates in RPMI medium and incubated for 7 days in the presence of increasing doses of nucleoside or non-nucleoside reverse transcriptase inhibitors or HIV protease inhibitors. Drugs, provided as lyophilized powders by the AIDS Research and Reference Reagent Program, were resuspended to a final concentration of 10 mg/mL (except for PFA: 60 mg/mL) in different solvents as recommended (SEE table 1). Cells were incubated for 7 days at increasing doses of drugs or the vehicle of solution as controls. Supernatants were collected and cell debris was removed by centrifugation at 2300 rpm for 20 min. Supernatant was assessed for Reverse Transcriptase Activity using the Reverse Transcription Assay Kit (Invitrogen) as described by the manufacturer. In addition, supernatants were treated with 20 units of DNAse (Roche) for 1 hour at 37° C. and viral RNA was extracted using the Viral RNA mini kit (Qiagen) as described by the manufacturer. The HERV-K type 2 viral load was measured by quantitative Real Time RT-PCR using primers that expand the type-2 env gene region, which is absent in type-1 viruses, Kenv type2F: 5′-[…]-3′ (SEQ ID NO. 1), and Kenv type2R: 5′-[…]-3′ (SEQ ID NO. 2). Standard curves were generated using serial dilutions of in vitro RNA transcripts as external calibrators. In a similar way, quantities of HERV—K type 2 proviruses were measured by Real Time PCR using 500 ng of isolated DNA.
row,Compound,HERV K (HML2) RT activity
1,Nc1nc(NC2CC2)c2ncn([C@H]3C=C[C@@H](CO)C3)c2n1 [Abacavir],reduction
2,"O=c1nc(NO)ccn1[C@@H]1O[C@H](CO)[C@@H](O)[C@H]1O [β-D hydroxycytidine, β-d hydroxy cytidine]",reduction
3,"CC(C)OC(=O)OCOP(=O)(CO[C@H](C)Cn1cnc2c(N)ncnc21)OCOC(=O)OC(C)C [tenofovir disoproxil, Tenofovir disoproxyl fumarato]",reduction
4,"Nc1ccn([C@H]2CC[C@@H](CO)O2)c(=O)n1 [ddC, zalcitabine]",reduction
5,"O=c1[nH]cnc2c1ncn2[C@H]1CC[C@@H](CO)O1 [ddI, Dideoxyinosine]",reduction
6,"Cc1cn([C@H]2C=C[C@@H](CO)O2)c(=O)[nH]c1=O [d4T, Stavudine]",reduction
7,"Nc1nc(=O)n([C@@H]2CS[C@H](CO)O2)cc1F [FTC, Emtricitabine]",reduction
8,"Cc1cn([C@H]2C[C@H](N=[N+]=[N-])[C@@H](CO)O2)c(=O)[nH]c1=O [AZT, Zidovudine]",reduction
